Experimental data as given in US20250154141A1 (University of Florida Research Foundation, Incorporated, priority 2021, published 2025).
Where two headings read alike, the source gives them in different places.

Experiments:
Assay type in all cases: cell-based
RS4; 11 = experiment: Cell viability assay (MTS) in RS4; 11 cells; design: Anti-Cancer Activity IC50 (48 hr) RS4; 11: scale not given here
Procedure: (§1) Acute lymphoblastic leukemia cells (MOLT-4 and RS4; 11) were incubated with increasing concentrations of Bcl-xL degraders for 48 h. Cell viability was measured by tetrazolium-based MTS assay.

MOLT-4 = experiment: Cell viability assay (MTS) in MOLT-4 cells
Procedure: as §1

human platelets = experiment: Platelet toxicity assay (MTS viability); conditions: for IC50: 48 h, human platelets; for Platelets/MOLT-4 IC50 Fold change / PLT/MOLT-4 IC50 Fold Change: ratio of platelet IC50 to MOLT-4 IC50
Procedure: Platelet-rich plasma (PRP) was purchased from Life South Community Blood Centers (Gainesville, FL, USA). PRP was transferred into a 50 mL tube containing 5 mL of the acid citrate buffer (Cat. No. sc-214744, Santa Cruz Biotechnology). To prevent clotting, prostaglandin E1 (PGE1, Cat. No. sc-201223A, Santa Cruz Biotechnology, Dallas, TX, USA) and apyrase (Cat. No. A6237, Sigma-Aldrich, St. Louis, MO, USA) were added to final concentrations of […] and 0.2 U/mL, respectively. After gently mixing the solution, platelets were pelleted by centrifugation at 1200 g for 10 min without break. Pelleted platelets were gently washed without disturbing platelets using 2 mL of HEPES Tyrode's buffer (Cat. No. PY-921WB, Boston BioProducts, Ashland, MA, USA) containing […] PGE1 and 0.2 U/mL apyrase. After washing, pellets were gently suspended in 10 mL of HEPES Tyrode's buffer containing […] PGE1 and 0.2 U/mL apyrase. Then, the platelet number was counted using a HEMAVET 950FS hematology analyzer (Drew Scientific, Inc., Oxford, CT, USA). For viability assays, the platelet number was adjusted to 2×10^8/mL in HEPES Tyrode's buffer containing […] PGE1 and 0.2 U/mL apyrase. Each treatment was given in 2 mL of the platelet suspension in 15 mL polypropylene tubes. The tubes were placed on a rotating platform at room temperature, and the viability of platelets was measured after 48 h treatment by using the MTS reagent (Cat. No. G1111, Promega, Madison, WI, USA). The data were analyzed by the GraphPad Prism 7 software for the calculation of IC50 values.

[1] = Homo sapiens, RS4-11, Table 4, 48 h, read-out: RS4 48 h IC50
[2] = Homo sapiens, MOLT-4, Table 3, 48 h, mean of two independent experiments in triplicates, read-out: MOLT-4 48 h IC50
[3] = Homo sapiens, Platelet, Table 3, mean of two independent experiments in triplicates, read-out: Platelets 48 h IC50
[4] = Homo sapiens, Platelet, Table 4, read-out: Platelets 48 h IC50
[5] = Homo sapiens, Platelet, Table 6, 4 th time, read-out: Platelets 4 th time 48 h IC50
[6] = Homo sapiens, MOLT-4, Table 4, 48 h, read-out: MOLT-4 48 h IC50
[7] = Homo sapiens, RS4-11, Table 2, 48 hr, MTS, read-out: Anti-Cancer Activity IC50 (48 hr) RS4, 11
[8] = Homo sapiens, MOLT-4, Table 2, 48 hr, MTS, read-out: Anti-Cancer Activity IC50 (48 hr) MOLT-4

## CC1(C)CCC(c2ccc(Cl)cc2)=C(CN2CCN(c3ccc(C(=O)NS(=O)(=O)c4ccc(N[C@H](CCN5CCOCC5)CSc5ccccc5)c(S(=O)(=O)C(F)(F)F)c4)cc3)CC2)C1 [ABT-263, navitoclax, reference compound]
RS4; 11; [1]
  IC50: 38 nM
MOLT-4; [2]
  IC50: 220 nM
Human platelets; [3]
  IC50: 312 nM
Human platelets; [4]
  IC50: 260 nM
Human platelets; [5]
  IC50: 223 nM
Human platelets; Table 3
  Platelets/MOLT-4 IC50 Fold change: 1.4
Human platelets; Table 6
  Platelets/MOLT-4 IC50 Fold change: 1

## Cc1ncsc1-c1ccc([C@H](C)NC(=O)[C@@H]2C[C@@H](O)CN2C(=O)[C@@H](NC(=O)CCCCCCC(=O)N2CCN(C[C@]3(C)CCC(c4ccc(Cl)cc4)=C(CN4CCN(c5ccc(C(=O)NS(=O)(=O)c6ccc(N[C@H](CCN7CCOCC7)CSc7ccccc7)c(S(=O)(=O)C(F)(F)F)c6)cc5)CC4)C3)CC2)C(C)(C)C)cc1 [PZ753B, reference compound]
RS4; 11; [1]
  IC50: 5.8 nM
MOLT-4; [6]
  IC50: 6.9 nM
Human platelets; [4]
  IC50: 1050 nM
Human platelets; Table 4
  PLT/MOLT-4 IC50 Fold Change: 152

## Cc1ncsc1-c1ccc([C@H](C)NC(=O)[C@@H]2C[C@@H](O)CN2C(=O)[C@@H](NC(=O)CCCCCCC(=O)N2CCN(CC3(C)CCC(c4ccc(Cl)cc4)=C(CN4CCN(c5ccc(C(=O)NS(=O)(=O)c6ccc(N[C@H](CCN7C[C@@H]8C[C@H]7CO8)CSc7ccccc7)c(S(=O)(=O)C(F)(F)F)c6)cc5)CC4)C3)CC2)C(C)(C)C)cc1 (stereo partly drawn) [compound 64]
RS4; 11; [7]
  IC50: < 20 nM
RS4; 11; Homo sapiens, RS4-11, Table 6, 48 h, read-out: RS4 48 h IC50
  IC50: 4.7 nM
MOLT-4; [8]
  IC50: < 20 nM
MOLT-4; Homo sapiens, MOLT-4, Table 6, 48 h, read-out: MOLT-4 48 h IC50
  IC50: 2.9 nM
Human platelets; [5]
  IC50: 884 nM

## Cc1ncsc1-c1ccc([C@H](C)NC(=O)[C@@H]2C[C@@H](O)CN2C(=O)[C@@H](NC(=O)CCCCCCC(=O)N2CCN(CC3(C)CCC(c4ccc(Cl)cc4)=C(CN4CCN(c5ccc(C(=O)NS(=O)(=O)c6ccc(N[C@H](CCN7CCOCC7)CSc7ccccc7)c(S(=O)(=O)C(F)(F)F)c6)cc5)CC4)C3)CC2)C(C)(C)C)cc1 (stereo partly drawn) [PP18319C8]
RS4; 11; [1]
  IC50: 18.7 nM
MOLT-4; [6]
  IC50: 17.4 nM
Human platelets; [4]
  IC50: 1640 nM
Human platelets; Table 4
  PLT/MOLT-4 IC50 Fold Change: 94

## Cc1ncsc1-c1ccc([C@H](C)NC(=O)[C@@H]2C[C@@H](O)CN2C(=O)[C@@H](NC(=O)CCCCCNC(=O)c2ccc(N3CCN(CC4(C)CCC(c5ccc(Cl)cc5)=C(CN5CCN(c6ccc(C(=O)NS(=O)(=O)c7ccc(N[C@H](CCN8CCOCC8)CSc8ccccc8)c(S(=O)(=O)C(F)(F)F)c7)cc6)CC5)C4)CC3)nc2)C(C)(C)C)cc1 (stereo partly drawn) [Compound 3]
RS4; 11; [7]
  IC50: 20 to 100 nM
RS4; 11; [1]
  IC50: 44.9 nM
MOLT-4; [8]
  IC50: < 20 nM
MOLT-4; [6]
  IC50: 9.6 nM
Human platelets; [4]
  IC50: 4900 nM
Human platelets; Table 4
  PLT/MOLT-4 IC50 Fold Change: 510

## Cc1ncsc1-c1ccc([C@H](C)NC(=O)[C@@H]2C[C@@H](O)CN2C(=O)[C@@H](NC(=O)CCCCCCC(=O)N2CCN(CC3(C)CCC(c4ccc(Cl)cc4)=C(CN4CCN(c5ccc(C(=O)NS(=O)(=O)c6ccc(N[C@H](CCN(C)CCO)CSc7ccccc7)c([N+](=O)[O-])c6)cc5)CC4)C3)CC2)C(C)(C)C)cc1 (stereo partly drawn) [Compound 41, (2S,4R)-1-((2S)-2-(8-(4-((4′-chloro-6-((4-(4-(((4-(((R)-4-((2-hydroxyethyl)(methyl)amino)-1-(phenylthio)butan-2-yl)amino)-3-nitrophenyl)sulfonyl)carbamoyl)phenyl)piperazin-1-yl)methyl)-4-methyl-2,3,4,5-tetrahydro-[1,1′-biphenyl]-4-yl)methyl)piperazin-1-yl)-8-oxooctanamido)-3,3-dimethylbutanoyl)-4-hydroxy-N—((S)-1-(4-(4-methylthiazol-5-yl)phenyl)ethyl)pyrrolidine-2-carboxamide]
RS4; 11; [7]
  IC50: < 20 nM
MOLT-4; [8]
  IC50: 20 to 100 nM
MOLT-4; [2]
  IC50: 38.1 nM
Human platelets; [3]
  IC50: 4900 nM
Human platelets; Table 3
  Platelets/MOLT-4 IC50 Fold change: 128

## Cc1ncsc1-c1ccc([C@H](C)NC(=O)[C@@H]2C[C@@H](O)CN2C(=O)[C@@H](NC(=O)CCCCCNC(=O)c2ccc(N3CCN(CC4(C)CCC(c5ccc(Cl)cc5)=C(CN5CCN(c6ccc(C(=O)NS(=O)(=O)c7ccc(N[C@H](CCN8CCOCC8)CSc8ccccc8)c(S(=O)(=O)C(F)(F)F)c7)cc6)CC5)C4)CC3)cc2)C(C)(C)C)cc1 (stereo partly drawn) [Compound 12, (2S,4R)-1-((2S)-2-(6-(4-(4-((4′-chloro-4-methyl-6-((4-(4-(((4-(((R)-4-morpholino-1-(phenylthio)butan-2-yl)amino)-3-((trifluoromethyl)sulfonyl)phenyl)sulfonyl)carbamoyl)phenyl)piperazin-1-yl)methyl)-2,3,4,5-tetrahydro-[1,1′-biphenyl]-4-yl)methyl)piperazin-1-yl)benzamido)hexanamido)-3,3-dimethylbutanoyl)-4-hydroxy-N—((S)-1-(4-(4-methylthiazol-5-yl)phenyl)ethyl)pyrrolidine-2-carboxamide]
RS4; 11; [7]
  IC50: 20 to 100 nM
MOLT-4; [8]
  IC50: < 20 nM
MOLT-4; [2]
  IC50: 17.5 nM
Human platelets; [3]
  IC50: 2160 nM
Human platelets; Table 3
  Platelets/MOLT-4 IC50 Fold change: 123

## Cc1ncsc1-c1ccc([C@H](C)NC(=O)[C@@H]2C[C@@H](O)CN2C(=O)[C@@H](NC(=O)CCCCCCC(=O)N2CCN(C[C@]3(C)CCC(c4ccc(Cl)cc4)=C(CN4CCN(c5ccc(C(=O)NS(=O)(=O)c6ccc(N[C@H](CCN7C[C@H]8C[C@@H]7CO8)CSc7ccccc7)c(S(=O)(=O)C(F)(F)F)c6)cc5)CC4)C3)CC2)C(C)(C)C)cc1 [Compound 66]
RS4; 11; [7]
  IC50: < 20 nM
RS4; 11; [1]
  IC50: 1.6 nM
MOLT-4; [8]
  IC50: < 20 nM
MOLT-4; [2]
  IC50: 2.3 nM
Human platelets; [3]
  IC50: 853 nM
Human platelets; [4]
  IC50: 853 nM
Human platelets; [5]
  IC50: 853 nM
Human platelets; Table 3
  Platelets/MOLT-4 IC50 Fold change: 370
Human platelets; Table 4
  PLT/MOLT-4 IC50 Fold Change: 370
Human platelets; Table 6
  Platelets/MOLT-4 IC50 Fold change: 370

## Cc1ncsc1-c1ccc([C@H](C)NC(=O)[C@@H]2C[C@@H](O)CN2C(=O)[C@@H](NC(=O)CCCCCCC(=O)N2CCN(C[C@]3(C)CCC(c4ccc(Cl)cc4)=C(CN4CCN(c5ccc(C(=O)NS(=O)(=O)c6ccc(N[C@H](CCN(C)CCO)CSc7ccccc7)c(S(=O)(=O)C(F)(F)F)c6)cc5)CC4)C3)CC2)C(C)(C)C)cc1 [Compound 62]
RS4; 11; [7]
  IC50: < 20 nM
RS4; 11; [1]
  IC50: < 7 nM
MOLT-4; [8]
  IC50: < 20 nM
MOLT-4; [6]
  IC50: 21 nM
Human platelets; [4]
  IC50: > 10000 nM

## Cc1ncsc1-c1ccc([C@H](C)NC(=O)[C@@H]2C[C@@H](O)CN2C(=O)[C@@H](NC(=O)CCCCCC(=O)N2CCN(CC[C@H](CSc3ccccc3)Nc3ccc(S(=O)(=O)NC(=O)c4ccc(N5CCN(CC6=C(c7ccc(Cl)cc7)CCC(C)(C)C6)CC5)cc4)cc3S(=O)(=O)C(F)(F)F)CC2)C(C)(C)C)cc1 [DT2216, reference compound]
RS4; 11; Table 4, 48 h, read-out: RS4 48 h IC50
  IC50: 180 to 230 nM
MOLT-4; Table 4, 48 h, read-out: MOLT-4 48 h IC50
  IC50: 50 to 80 nM
Human platelets; Table 4, read-out: Platelets 48 h IC50
  IC50: > 10000 nM
Human platelets; Table 4
  PLT/MOLT-4 IC50 Fold Change: >150

## Cc1ncsc1-c1ccc([C@H](C)NC(=O)[C@@H]2C[C@@H](O)CN2C(=O)[C@@H](NC(=O)CCCCCCC(=O)N2CCN(CC3(C)CCC(c4ccc(Cl)cc4)=C(CN4CCN(c5ccc(C(=O)NS(=O)(=O)c6ccc(N[C@H](CCN7CCC7)CSc7ccccc7)c([N+](=O)[O-])c6)cc5)CC4)C3)CC2)C(C)(C)C)cc1 (stereo partly drawn) [Compound 37, (2S,4R)-1-((2S)-2-(8-(4-((6-((4-(4-(((4-(((R)-4-(azetidin-1-yl)-1-(phenylthio)butan-2-yl)amino)-3-nitrophenyl)sulfonyl)carbamoyl)phenyl)piperazin-1-yl)methyl)-4′-chloro-4-methyl-2,3,4,5-tetrahydro-[1,1′-biphenyl]-4-yl)methyl)piperazin-1-yl)-8-oxooctanamido)-3,3-dimethylbutanoyl)-4-hydroxy-N—((S)-1-(4-(4-methylthiazol-5-yl)phenyl)ethyl)pyrrolidine-2-carboxamide]
RS4; 11; Homo sapiens, RS4-11, Table 5, 48 h, read-out: RS4 48 h IC50
  IC50: 7 nM
RS4; 11; Table 2, 48 hr, MTS
  Anti-Cancer Activity IC50 (48 hr) RS4; 11: + +
MOLT-4; [8]
  IC50: < 20 nM
MOLT-4; Homo sapiens, MOLT-4, Table 5, 48 h, read-out: MOLT-4 48 h IC50
  IC50: 20 nM
Human platelets; Homo sapiens, Platelet, Table 5, read-out: Platelets 48 h IC50
  IC50: 4620 nM
